From PMC10451034, “Highly Efficient Photosensitizers with Molecular Vibrational Torsion for Cancer Photodynamic Therapy” (ACS Central Science, 2023)

What was measured:
[1] = tested on: 4T1 subcutaneous solid tumor; assay: Tumor suppression (PDT) in 4T1-subcutaneous tumor model; format: in vivo, BALB/c mice; settings: for tumor volume increase: no irradiation
Experimental: In view of the observation that the fluorescence intensity of QTCy7-Ac in the tumor site peaked around 2–2.5 h after intravenous injection, this period was chosen as the PDT time window. […] Even so, this approach achieved partial tumor suppression; the tumor volume was 1-fold compared with the initial situation. […] After PDT treatment, the tumor kept shrinking in size (Figure S22a), which achieved a tumor suppression rate of nearly 95% (Figure S22b). Nevertheless, the tumors in PBS groups increased quickly with a 6-fold increment compared with the initial volume whether exposed to irradiation or not, which ruled out the influence of light on tumor growth. In addition, there was virtually no difference between the intratumoral and intravenous injection groups treated with QTCy7-Ac, with tumor volumes increasing by 6-fold and 7-fold, respectively, which excluded the cytotoxicity of the dye alone. […]
of major organs, the mice L) was intravenously injected with QTCy7-Ac (200 μM, 100 μL) 2 hours in advance were killed and the main organs and tumors were removed for […]
Tumor suppression experiments of 4T1-subcutaneous tumor model
To confirm the in vivo PDT efficacy of QTCy7-Ac, all the BALB/c mice were divided into 6 groups: 1) saline injection; 2) saline injection with 660 nm irradiation (100 mW/cm2, 15 min); 3) QTCy7-Ac (200 μM, 100 μL) intratumoral injection; 4) QTCy7-Ac (200 μM, 100 μL) intratumoral injection with 660 nm irradiation (100 mW/cm2, 15 min); 5) QTCy7-Ac (200 μM, 100 μL) intravenous injection; 6) QTCy7-Ac (200 μM, 100 μL) intravenous injection with 660 nm irradiation (100 mW/cm2, 15 min); When the volume of subcutaneous tumors reached about 100 mm 3, mice were injected with PBS or QTCy7-Ac, respectively. After 2 h post-injection, tumor region was irradiated with […] light. In the following half month, the tumor volume of all the mice was measured every two days by a vernier caliper. The volume of tumors was calculated by the following formula: […]
Where “V” represent the tumor volume, “a” represent greatest longitudinal diameter (length) and “b” represent the greatest transverse diameter (width).
The in vivo biocompatibility was evaluated by using measurement mice body weight and H&E slice histological analysis. After the PDT treatment, the mice were euthanized, and main organs including heart, liver, spleen, lung, kidneys and tumors were harvested for histological analysis by means of hematoxylin-eosin (H&E) staining.
Data were expressed as mean ± standard deviation. Student's t test was used to evaluate the statistical significance. P values < 0.05 were regarded statistically

HepG2 cells [2] = assay: Intracellular ROS detection with DCFH-DA; format: cell-based, human; settings: after 660 nm light irradiation
Experimental: In order to explore the mechanism of cellular structure destruction caused by QTCy7-R, intracellular ROS generation was investigated by DCFH-DA reagent. […] Ulteriorly, cell destruction caused by ROS generation was assessed by Calcein-AM/propidium iodide (PI)-mediated fluorescence imaging (Figures 9c and S21). […]
medium (DMEM, Invitrogen) with 10 % fetal bovine serum (Invitrogen) and 1% penicillinstreptomycin. All cells were treated at 37 °C with the humidified atmosphere containing 5% CO2 and 95% air. Before conducting cell imaging experiments, all types of cells were maintained on 35 mm glass-bottom cell dishes for 24 h.
(§1) Confocal fluorescence imaging
(§2) After culturing the cells in 35 mm glass-bottom cell dishes for 24 h, the DMEM medium was replaced with saline, then QTCy7-R was added (3 μM). The confocal fluorescence imaging was carried out and images were recorded. (λex = 640 nm, λem = 680-780 nm). […] After fluorescence imaging, colocalization coefficient was analyzed and recorded. […]
(§3) fluorescence signal (JC-1 monomer). […]
(§4) 2,7-dichlorofluorescein diacetate (DCFH-DA) Detection Kit was chosen to validate the intracellular ROS generation. […] Then the cells were exposed under NIR irradiation, after which the confocal fluorescence imaging was performed . […]

HepG2 cells [3] = assay: Mitochondrial membrane potential detection by JC-1 staining; format: cell-based, human; settings: 660 nm irradiation (6 J/cm^2)
Experimental: Next, in order to verify the disruption effect on cell structural integrity of the ^1O2 generation by QTCy7-R under irradiation, JC-1 staining imaging was conducted to monitor the mitochondria membrane potential. […] On the other hand, cell membrane damage caused by the photooxidation of QTCy7-Ac and QTCy7-CHO could be confirmed by a visualized observation. […] Furthermore, the lactate dehydrogenase (LDH) content in cell culture medium was measured to characterize the extent of cell membrane damage.[49] […]
medium (DMEM, Invitrogen) with 10 % fetal bovine serum (Invitrogen) and 1% penicillinstreptomycin. All cells were treated at 37 °C with the humidified atmosphere containing 5% CO2 and 95% air. […]
as §1
as §2, with “recorded.” for “recorded. (λex = 640 nm, λem = 680-780 nm).”
as §3, §4

SMILES | H&E staining of tumor tissue ([1]; QTCy7-Ac-mediated PDT) | tumor volume compared with initial ([1]; intratumoral injection + 660 nm, 100 mW/cm^2, 15 min) [fold] | tumor volume increase ([1]; intratumoral injection) [fold] | tumor suppression rate ([1]; intravenous injection + 660 nm, 100 mW/cm^2, 15 min) [%] | tumor volume increase ([1]; intravenous injection) [fold] | intracellular ROS generation (DCFH-DA fluorescence) (HepG2 cells [2]) | mitochondrial membrane potential change (HepG2 cells [3])
CCOC(=O)C1=C/C(=C\C=C2/Sc3ccccc3N2CC)C(=O)C(/C=C/c2sc3ccccc3[n+]2CC)=C1 [QTCy7-Ac] | Conspicuous morphological damage | 1 | 6 | ~95 | 7 | stronger fluorescence signal | 
CCN1/C(=C/C=C2\C=C(C)C=C(/C=C/c3sc4ccccc4[n+]3CC)C2=O)Sc2ccccc21 [QTCy7-Me] |  |  |  |  |  |  | severe mitochondrial depolarization
CCN1/C(=C/C=C2\C=C(c3ccccc3)C=C(/C=C/c3sc4ccccc4[n+]3CC)C2=O)Sc2ccccc21 [QTCy7-Ph] |  |  |  |  |  | stronger fluorescence signal | severe mitochondrial depolarization
